According to US9708334B2, “Substituted 2,4,5,6-tetrahydropyrrolo[3,4-c]pyrazole and 4,5,6,7-tetrahydro-2H-pyrazolo[4,3-c]pyridine compounds as GlyT1 inhibitors” (DART NEUROSCIENCE (CAYMAN) LTD., priority 2014, dated 2017):

Molecular target: T1, GlyT1 (Homo sapiens, UniProt P48067)
T1 construct: expressed in transfected cells
T1 sequence (P48067 1-706): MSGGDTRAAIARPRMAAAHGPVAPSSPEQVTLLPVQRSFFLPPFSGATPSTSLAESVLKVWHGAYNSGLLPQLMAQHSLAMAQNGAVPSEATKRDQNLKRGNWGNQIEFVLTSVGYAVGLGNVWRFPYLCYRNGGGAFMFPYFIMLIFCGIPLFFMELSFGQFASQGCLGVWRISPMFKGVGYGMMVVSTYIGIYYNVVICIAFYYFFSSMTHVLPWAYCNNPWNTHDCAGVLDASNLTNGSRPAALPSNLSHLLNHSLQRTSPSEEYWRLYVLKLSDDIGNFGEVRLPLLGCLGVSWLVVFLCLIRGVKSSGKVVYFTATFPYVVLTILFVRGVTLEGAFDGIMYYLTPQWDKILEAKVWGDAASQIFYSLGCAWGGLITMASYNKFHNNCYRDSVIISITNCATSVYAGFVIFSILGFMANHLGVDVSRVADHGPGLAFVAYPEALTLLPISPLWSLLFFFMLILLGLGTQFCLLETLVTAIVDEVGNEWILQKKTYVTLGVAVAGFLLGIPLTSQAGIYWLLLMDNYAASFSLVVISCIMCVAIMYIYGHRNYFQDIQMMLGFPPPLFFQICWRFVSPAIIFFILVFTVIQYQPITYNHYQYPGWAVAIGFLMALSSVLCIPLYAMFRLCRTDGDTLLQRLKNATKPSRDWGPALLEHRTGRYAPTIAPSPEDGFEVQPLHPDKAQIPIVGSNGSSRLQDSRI
Experiment: Glycine Transporter 1 (GlyT1) uptake assay, scintillation proximity assay of [14C]-glycine uptake
Type: cell-based
Details: SPA, four parameter logistic fit, read-out: GlyT1 (pIC50) (converted)
Summary of the method: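 IC50 values derive from four-parameter logistic curves fitted to dose-response data. Uptake of [14C]-glycine measured in scintillation proximity format.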

IC50 [nM] | Compound
< 100 | CCS(=O)(=O)c1ccc(-c2ccccc2)c(C(=O)N2Cc3cn(-c4cncc(F)c4)nc3C2)c1 [Example 570, 3-{5[5-(Ethanesulfonyl)-2-phenylbenzoyl]-2H 4H 5H 6H-pyrrolo[3,4-c]pyrazol-2-yl}-5-fluoropyridine]
100 to 1000 | CC(Oc1ccc(C#N)c(Cl)c1C(=O)N1CCc2nn(-c3ccc(Cl)cn3)cc2C1)C(F)(F)F (centres unmarked) [Example 228, 2-Chloro-3-[2-(5-chloropyridin-2-yl)-2H 4H 5H 6H 7H-pyrazolo[4,3-c]pyridine-5-carbonyl]-4-[(1 1 1-trifluoropropan-2-yl)oxy]benzonitrile]
1000 to 10000 | N#Cc1ccc(-c2ccccc2F)c(C(=O)N2Cc3cn(-c4cncc(F)c4)nc3C2)c1 [Example 550, 4-(2-Fluorophenyl)-3-[2-(5-fluoropyridin-3-yl)-2H 4H 5H 6H-pyrrolo[3,4-c]pyrazole-5-carbonyl]benzonitrile]
100 to 1000 | COc1c(C#N)ccc(OC(C)C(F)(F)F)c1C(=O)N1CCc2nn(-c3ncc(F)cc3F)cc2C1 (centres unmarked) [Example 233, 3-[2-(3 5-Difluoropyridin-2-yl)-2H 4H 5H 6H 7H-pyrazolo[4,3-c]pyridine-5-carbonyl]-2-methoxy-4-[(1 1 1-trifluoropropan-2-yl)oxy]benzonitrile]
100 to 1000 | N#Cc1ccc(OCC(F)(F)F)c(C(=O)N2Cc3cn(-c4cncc(F)c4)nc3C2)c1Cl [Example 25, 2-Chloro-3-[2-(5-fluoropyridin-3-yl)-2H 4H 5H 6H-pyrrolo[3,4-c]pyrazole-5-carbonyl]-4-(2 2 2-trifluoroethoxy)benzonitrile]
100 to 1000 | C[C@H](Oc1ccc(C#N)cc1C(=O)N1Cc2cn(-c3ccnc(C#N)c3)nc2C1)C(F)(F)F [Example 467, 4-[5-(5-Cyano-2-{[(2S)-1 1 1-trifluoropropan-2-yl]oxy}benzoyl)-2H 4H 5H 6H-pyrrolo[3,4-c]pyrazol-2-yl]pyridine-2-carbonitrile]
1000 to 10000 | N#Cc1ccc(C2(F)CCOCC2)c(C(=O)N2CCc3nn(-c4ccc(F)cc4)cc3C2)c1F [Example 199, 2-Fluoro-4-(4-fluorooxan-4-yl)-3-[2-(4-fluorophenyl)-2H 4H 5H 6H 7H-pyrazolo[4,3-c]pyridine-5-carbonyl]benzonitrile]
< 100 | COc1c(C#N)ccc(C2CCCC2)c1C(=O)N1CCc2nn(-c3ccccc3)cc2C1 [Example 485]
100 to 1000 | COc1c(C#N)ccc(C2(F)CCC2)c1C(=O)N1Cc2cn(-c3ccc(F)cn3)nc2C1 [Example 258, 4-(1-Fluorocyclobutyl)-3-[2-(5-fluoropyridin-2-yl)-2H 4H 5H 6H-pyrrolo[3,4-c]pyrazole-5-carbonyl]-2-methoxybenzonitrile]
< 100 | CS(=O)(=O)c1ccc(N2CCC(F)(F)CC2)c(C(=O)N2Cc3cn(CC4CCC4)nc3C2)c1 [Example 431, 1-{2-[2-(Cyclobutylmethyl)-2H 4H 5H 6H-pyrrolo[3,4-c]pyrazole-5-carbonyl]-4-methanesulfonylphenyl}-4 4-difluoropiperidine]
< 100 | Cc1cc(-n2cc3c(n2)CN(C(=O)c2cc(S(C)(=O)=O)ccc2O[C@@H](C)C(F)(F)F)C3)ccc1F [Example 36, 2-(4-Fluoro-3-methylphenyl)-5-(5-methanesulfonyl-2-{[(2S)-1 1 1-trifluoropropan-2-yl]oxy}benzoyl)-2H 4H 5H 6H-pyrrolo[3,4-c]pyrazole]
< 100 | C[C@H](Oc1ccc(C#N)cc1C(=O)N1Cc2cn(-c3ccncc3)nc2C1)C(F)(F)F [Example 443, 3-[2-(Pyridin-4-yl)-2H 4H 5H 6H-pyrrolo[3,4-c]pyrazole-5-carbonyl]-4-{[(2S)-1 1 1-trifluoropropan-2-yl]oxy}benzonitrile]
< 100 | CCS(=O)(=O)c1ccc(N2CCC(F)(F)CC2)c(C(=O)N2Cc3cn(-c4cncc(F)c4)nc3C2)c1 [Example 112]
< 100 | COc1c(C#N)ccc(O[C@@H](C)C(F)(F)F)c1C(=O)N1Cc2cn(-c3ccccc3)nc2C1 [Example 322]
< 100 | COc1c(S(C)(=O)=O)ccc(OC(C)C(F)(F)F)c1C(=O)N1CCc2nn(-c3ccc(F)cc3)cc2C1 (centres unmarked) [Example 198, 2-(4-Fluorophenyl)-5-{3-methanesulfonyl-2-methoxy-6-[(1 1 1-trifluoropropan-2-yl)oxy]benzoyl}-2H 4H 5H 6H 7H-pyrazolo[4,3-c]pyridine]
< 100 | CCS(=O)(=O)c1ccc(N2CCC(F)(F)CC2)c(C(=O)N2Cc3cn(-c4cc(C)ccc4F)nc3C2)c1 [Example 128, 1-[4-(Ethanesulfonyl)-2-[2-(2-fluoro-5-methylphenyl)-2H 4H 5H 6H-pyrrolo[3,4-c]pyrazole-5-carbonyl]phenyl]-4 4-difluoropiperidine]
100 to 1000 | C[C@H](Oc1ccc(C#N)cc1C(=O)N1Cc2cn(C3CCC(F)(F)CC3)nc2C1)C(F)(F)F [Example 472, 3-[2-(4 4-Difluorocyclohexyl)-2H 4H 5H 6H-pyrrolo[3,4-c]pyrazole-5-carbonyl]-4-{[(2S)-1 1 1-trifluoropropan-2-yl]oxy}benzonitrile]
1000 to 10000 | CC(Oc1ccc(C#N)c(Cl)c1C(=O)N1CCc2nn(C)cc2C1)C(F)(F)F (centres unmarked) [Example 203, 2-Chloro-3-{2-methyl-2H 4H 5H 6H 7H-pyrazolo[4,3-c]pyridine-5-carbonyl}-4-[(1 1 1-trifluoropropan-2-yl)oxy]benzonitrile]
< 100 | Cc1cc(-n2ncc3c2CN(C(=O)c2c(O[C@@H](C)C(F)(F)F)ccc(C#N)c2Cl)C3)ccn1 [Example 310, 2-Chloro-3-[1-(2-methylpyridin-4-yl)-1H 4H 5H 6H-pyrrolo[3,4-c]pyrazole-5-carbonyl]-4-{[(2S)-1 1 1-trifluoropropan-2-yl]oxy}benzonitrile]
< 100 | C[C@H](Oc1ccc(S(C)(=O)=O)cc1C(=O)N1Cc2cn(-c3ccc(F)c(C(F)F)c3)nc2C1)C(F)(F)F [Example 75, 2-[3-(Difluoromethyl)-4-fluorophenyl]-5-(5-methanesulfonyl-2-{[(2S)-1 1 1-trifluoropropan-2-yl]oxy}benzoyl)-2H 4H 5H 6H-pyrrolo[3,4-c]pyrazole]
100 to 1000 | CC(C)Oc1ccc(C#N)cc1C(=O)N1Cc2cn(-c3cncc(F)c3)nc2C1 [Example 336, 3-[2-(5-Fluoropyridin-3-yl)-2H 4H 5H 6H-pyrrolo[3,4-c]pyrazole-5-carbonyl]-4-(propan-2-yloxy)benzonitrile]
< 100 | CCS(=O)(=O)c1ccc(N2CCC(F)(F)CC2)c(C(=O)N2Cc3cn(-c4ccnc(C)c4)nc3C2)c1 [Example 111, 4-{5-[2-(4 4-Difluoropiperidin-1-yl)-5-(ethanesulfonyl)benzoyl]-2H 4H 5H 6H-pyrrolo[3,4-c]pyrazol-2-yl}-2-methylpyridine]
> 10000 | CC(Oc1ccc(C#N)c(Cl)c1C(=O)N1CCc2nn(-c3ccc(F)cc3)c(O)c2C1)C(F)(F)F (centres unmarked) [Example 197, 2-Chloro-3-[2-(4-fluorophenyl)-3-hydroxy-2H 4H 5H 6H 7H-pyrazolo[4,3-c]pyridine-5-carbonyl]-4-[(1 1 1-trifluoropropan-2-yl)oxy]benzonitrile]
< 100 | Cc1cc(-n2cc3c(n2)CN(C(=O)c2cc(S(C)(=O)=O)ccc2O[C@@H](C)C(F)(F)F)C3)ncc1F [Example 359, 5-Fluoro-2-[5-(5-methanesulfonyl-2-{[(2S)-1 1 1-trifluoropropan-2-yl]oxy}benzoyl)-2H 4H 5H 6H-pyrrolo[3,4-c]pyrazol-2-yl]-4-methylpyridine]
< 100 | CCS(=O)(=O)c1ccc(O[C@@H](C)C(F)(F)F)c(C(=O)N2Cc3cn(-c4cc(F)ccc4F)nc3C2)c1 [Example 125, 2-(2 5-Difluorophenyl)-5-[5-(ethanesulfonyl)-2-{[(2S)-1 1 1-trifluoropropan-2-yl]oxy}benzoyl]-2H 4H 5H 6H-pyrrolo[3,4-c]pyrazole]
100 to 1000 | COc1c(C#N)ccc(CCC(C)(C)C)c1C(=O)N1Cc2cn(-c3ccc(F)cc3)nc2C1 [Example 10, 4-(3,3-Dimethylbutyl)-3-(2-(4-fluorophenyl)-2,4,5,6-tetrahydropyrrolo[3,4-c]pyrazole-5-carbonyl)-2-methoxybenzonitrile]
< 100 | COc1c(C#N)ccc(O[C@@H](C)C(F)(F)F)c1C(=O)N1Cc2cn(-c3cccc(F)c3)nc2C1 [Example 268, 3-[2-(3-Fluorophenyl)-2H 4H 5H 6H-pyrrolo[3,4-c]pyrazole-5-carbonyl]-2-methoxy-4-{[(2S)-1 1 1-trifluoropropan-2-yl]oxy}benzonitrile]
< 100 | CC(Oc1ccc(C#N)cc1C(=O)N1Cc2cn(-c3ccc(F)cc3)nc2C1)C(F)F (centres unmarked) [Example 9, 4-((1,1-Difluoropropan-2-yl)oxy)-3-(2-(4-fluorophenyl)-2,4,5,6-tetrahydropyrrolo[3,4-c]pyrazole-5-carbonyl)benzonitrile]
100 to 1000 | C[C@H](Oc1ccc(C#N)cc1C(=O)N1Cc2cn(-c3ccc(F)cc3F)nc2C1)C(F)(F)F [Example 391, 3-[2-(2 4-Difluorophenyl)-2H 4H 5H 6H-pyrrolo[3,4-c]pyrazole-5-carbonyl]-4-{[(2S)-1 1 1-trifluoropropan-2-yl]oxy}benzonitrile]
